Molecular target: Mitogen-activated protein kinase kinase kinase 8 (Homo sapiens, UniProt P41279)
Experiment: COT HTRF Assay
Details: pH 7.5; 22 °C
Method: The COT direct HTRF assay was carried out using biotin-MEK1 as a substrate. The reaction was carried out in black 96 half-well plates. At designated time points, EDTA was added to quench the reaction. Detection reagents were then added to each well to make anti-phospho-MEK1-Eu antibody and SAXL. The plates were incubated, and then read using the RUBYstar HTRF reader.

Sequence of Mitogen-activated protein kinase kinase kinase 8 (P41279 whole entry): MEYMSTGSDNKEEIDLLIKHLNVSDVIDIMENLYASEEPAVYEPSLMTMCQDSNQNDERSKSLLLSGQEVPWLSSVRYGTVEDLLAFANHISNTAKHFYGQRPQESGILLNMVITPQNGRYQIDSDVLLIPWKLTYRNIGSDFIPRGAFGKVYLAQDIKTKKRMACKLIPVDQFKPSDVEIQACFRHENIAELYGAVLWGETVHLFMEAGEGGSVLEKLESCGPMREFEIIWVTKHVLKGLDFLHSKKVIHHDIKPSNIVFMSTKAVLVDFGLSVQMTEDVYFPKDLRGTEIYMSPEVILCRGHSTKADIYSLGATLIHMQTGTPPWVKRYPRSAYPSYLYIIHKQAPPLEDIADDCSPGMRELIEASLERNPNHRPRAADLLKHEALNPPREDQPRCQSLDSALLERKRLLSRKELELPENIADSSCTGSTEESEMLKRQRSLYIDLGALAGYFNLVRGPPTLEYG

SMILES: O=C(O)c1cc2c(Oc3ccc(I)cc3)cncc2s1
- IC50: 1000 nM
